Laboratory results reported in US5714576A, “Linear analogs of alpha-msh fragments” (Competitive Technologies, Inc., priority 1997, dated 1998).
Read-outs that look alike come from different tables or passages of the source. Positions of bridges follow the written chain, without caps; N, C: chain ends. Non-standard residues stand in square brackets, D forms with d. Residues, ends and D or L forms follow the SMILES beside them. Nle = CCCC[C@H](N)C(=O)O

Experiments:
Frog (Rana pipiens) Skin [1] = assay type: cell-based
Description: (§1) The biological potencies of alpha-MSH, the linear and cyclic analogues were determined by their ability to stimulate melanosome dispersion in vitro in the frog and lizard bioassays. This in vitro assay provides clear cut dose response curves (between 2.5×10^-11 and 4×10^-10 M) and can detect minimal concentration of alpha-MSH of about 10^-11 M. The assay is based upon the centrifugal dispersion of melanosomes (melanin granules) within the dendritic processes of integumental dermal melanophores leading to darkening of the skin. All the test solutions were prepared via serial dilutions from a stock solution (10^-4 M). The frogs (Rana pipiens) used in these evaluations were obtained from Kons Scientific, Germantown, Wis., and the lizards (Anolis carolinensis) were from the Snake Farm, La Place, La.

[2] = tested on: Lizard (Anolis carolinensis) Skin; assay type: cell-based
Description: as §1

Frog (Rana pipiens) Skin [3] = details: cited from earlier work; for Relative Potency Frog: relative to alpha-MSH = 1.0, selective fragments of alpha-MSH, previous research
[4] = tested on: Lizard (Anolis carolinensis) Skin; details: relative to alpha-MSH = 1.0; selective fragments of alpha-MSH, previous research; cited from earlier work
[5] = cyclic analogues, alpha-MSH = 1.0

Row | Molecule | Residual Activity Frog (prolonged action) (Frog (Rana pipiens) Skin [1]; cyclic analogues) | Biological Potency Frog (Frog (Rana pipiens) Skin [1]; [5]) | Residual Activity Lizard (prolonged action) ([2]; cyclic analogues) | Biological Potency Lizard [2, 5] | Relative Potency Frog (Frog (Rana pipiens) Skin [3]) | Relative Potency Lizard [4] | other results
1 | CCCC[C@H](NC(C)=O)C(=O)N[C@@H](CCC(=O)O)C(=O)N[C@@H](Cc1c[nH]cn1)C(=O)N[C@@H](Cc1ccccc1)C(=O)N[C@@H](CCCNC(=N)N)C(=O)N[C@@H](Cc1c[nH]c2ccccc12)C(=O)N[C@@H](CCCCN)C(N)=O [Analogue 13] | – | – | – | – | – | – | Biological Potency Frog (Frog (Rana pipiens) Skin [1]): 0.001; Residual Activity Frog (prolonged action) (Frog (Rana pipiens) Skin [1]; linear analogues): P(+); Biological Potency Lizard [2]: 0.08; Residual Activity Lizard (prolonged action) ([2]; linear analogues): P(-)
2 | CCCC[C@H](NC(C)=O)C(=O)N[C@H]1CCC(=O)NCCCC[C@@H](C(=O)NCC(=O)N2CCC[C@H]2C(=O)N[C@H](C(N)=O)C(C)C)NC(=O)[C@H](Cc2c[nH]c3ccccc23)NC(=O)[C@H](CCCNC(=N)N)NC(=O)[C@@H](Cc2ccccc2)NC(=O)[C@H](Cc2c[nH]cn2)NC1=O [Analogue 15] (Ac-[Nle]EH[dF]RWKGPV-NH2; lactam 2-7) | p(+) | 1.0 | p(+) | 6.0 | – | – | –
3 | CCCC[C@H](NC(C)=O)C(=O)N[C@H]1CCC(=O)NCCCC[C@@H](C(N)=O)NC(=O)[C@H](Cc2c[nH]c3ccccc23)NC(=O)[C@H](CCCNC(=N)N)NC(=O)[C@@H](Cc2ccccc2)NC(=O)[C@H](Cc2c[nH]cn2)NC1=O [Analogue 16] | p(+) | 0.5 | p(+) | 9.0 | – | – | –
4 | CCCC[C@H](NC(C)=O)C(=O)N[C@H]1CC(=O)NCCC[C@@H](C(N)=O)NC(=O)[C@H](Cc2c[nH]c3ccccc23)NC(=O)[C@H](CCCNC(=N)N)NC(=O)[C@@H](Cc2ccccc2)NC(=O)[C@H](Cc2c[nH]cn2)NC1=O [Analogue 18] | p(-) | 1.0 | p(-) | 20.0 | – | – | –
5 | CCCC[C@H](NC(C)=O)C(=O)N[C@H]1CC(=O)NCC[C@@H](C(N)=O)NC(=O)[C@H](Cc2c[nH]c3ccccc23)NC(=O)[C@H](CCCNC(=N)N)NC(=O)[C@@H](Cc2ccccc2)NC(=O)[C@H](Cc2c[nH]cn2)NC1=O [Analogue 19] | p(-) | 1.0 | p(-) | 5.0 | – | – | –
6 | CCCC[C@H](NC(C)=O)C(=O)N[C@H]1CC(=O)NC[C@@H](C(N)=O)NC(=O)[C@H](Cc2c[nH]c3ccccc23)NC(=O)[C@H](CCCNC(=N)N)NC(=O)[C@@H](Cc2ccccc2)NC(=O)[C@H](Cc2c[nH]cn2)NC1=O [Analogue 20] | p(-) | 0.01 | p(-) | 5.0 | – | – | –
7 | Ac--[Nle^4 ]-alpha-MSH4-10 NH2 | – | – | – | – | 0.002 | 0.06 | –
8 | Ac--[Nle^4 ]-alpha-MSH4-11 NH2 | – | – | – | – | 0.002 | 1.0 | –
9 | Ac--[Nle^4, D--Phe^7 ]-alpha-MSH4-10 NH2 | – | – | – | – | 0.02 | 10.0 | –
10 | Ac--[Nle^4,D--Phe^7 ]-alpha-MSH1-13 NH2 | – | – | – | – | 60.0 | 5.0 | –
11 | Ac-Met-Glu-His-Phe-Arg-Trp-Gly-NH2 [Ac-alpha-MSH4-10 NH2] | – | – | – | – | 0.0003 | 0.004 | melanocyte stimulating activity in frog skin (Frog (Rana pipiens) Skin [3]; compared to the native hormone): weak agonist
12 | Ac[Nle^4, D--Phe^7 ]-alpha-MSH4-11 NH2 | – | – | – | – | 0.16 | 8.0 | –
